Source: ChEMBL document CHEMBL5550171, “Poly (ADP-ribose) polymerase (PARP) inhibitors as anticancer agents: An outlook on clinical progress, synthetic strategies, biological activity, and structure-activity relationship” (Eur J Med Chem, 2024)

Key:
[1] = molecular target: T1, Poly [ADP-ribose] polymerase 1 (Homo sapiens, UniProt P09874); assay: Inhibition of PARP1 (unknown origin)
[2] = molecular target: T2, Poly [ADP-ribose] polymerase 2 (Homo sapiens, UniProt Q9UGN5); assay: Inhibition of PARP2 (unknown origin)
T2 sequence (Q9UGN5 whole entry): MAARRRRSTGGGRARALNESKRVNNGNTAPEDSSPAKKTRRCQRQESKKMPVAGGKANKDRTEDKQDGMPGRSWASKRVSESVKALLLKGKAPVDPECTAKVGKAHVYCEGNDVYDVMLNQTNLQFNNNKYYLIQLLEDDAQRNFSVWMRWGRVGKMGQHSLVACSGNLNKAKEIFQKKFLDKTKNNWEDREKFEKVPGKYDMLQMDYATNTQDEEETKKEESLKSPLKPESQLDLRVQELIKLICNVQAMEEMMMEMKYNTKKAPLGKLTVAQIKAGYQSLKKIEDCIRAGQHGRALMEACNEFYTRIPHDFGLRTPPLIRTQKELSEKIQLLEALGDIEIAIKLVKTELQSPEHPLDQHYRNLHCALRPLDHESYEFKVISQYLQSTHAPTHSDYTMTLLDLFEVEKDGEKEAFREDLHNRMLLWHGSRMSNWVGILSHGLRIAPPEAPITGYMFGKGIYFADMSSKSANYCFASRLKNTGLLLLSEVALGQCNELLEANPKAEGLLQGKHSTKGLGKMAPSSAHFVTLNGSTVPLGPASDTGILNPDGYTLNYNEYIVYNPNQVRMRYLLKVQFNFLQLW

MDA-MB-157 = assay: Anticancer activity against human MDA-MB-157 cells assessed as cell growth inhibition; assay type: functional, cell-based
HCC1395 = assay: Anticancer activity against human HCC1395 cells assessed as cell growth inhibition; assay type: functional, cell-based
RPMI-8226 = assay: Growth inhibition of human RPMI-8226 cells; assay type: functional
NCI-H226 = assay: Growth inhibition of human NCI-H226 cells; assay type: functional
HCT-116 [3] = assay: Growth inhibition of human HCT-116 cells; assay type: functional
SNB-75 = assay: Growth inhibition of human SNB-75 cells; assay type: functional
LOX IMVI = assay: Growth inhibition of human LOX IMVI cells; assay type: functional
IGROV-1 = assay: Growth inhibition of human IGROV-1 cells; assay type: functional
MDA-MB-468 = assay: Growth inhibition of human MDA-MB-468 cells; assay type: functional
HCT-116 [4] = assay: Antiproliferative activity against human HCT-116 cells assessed as reduction in cell viability incubated for 72 hrs by MTT assay; assay type: functional, cell-based; settings: HCT-116, 72 h
MCF7 [5] = assay: Antiproliferative activity against human MCF7 cells assessed as reduction in cell viability incubated for 72 hrs by MTT assay; assay type: functional, cell-based; settings: MCF7, 72 h
Jurkat = assay: Antiproliferative activity against human Jurkat cells assessed as reduction in cell viability incubated for 72 hrs by MTT assay; assay type: functional, cell-based
A549 [6] = assay: Antiproliferative activity against human A549 cells assessed as reduction in cell viability incubated for 72 hrs by MTT assay; assay type: functional, cell-based; settings: A549, 72 h
SK-OV-3 = assay: Antiproliferative activity against human SK-OV-3 cells assessed as reduction in cell viability incubated for 72 hrs by MTT assay; assay type: functional, cell-based; settings: SK-OV-3, 72 h
KB 3-1 = assay: Antiproliferative activity against human KB 3-1 cells assessed as reduction in cell viability incubated for 72 hrs by MTT assay; assay type: functional, cell-based; settings: KB 3-1, 72 h
[7] = Cytotoxicity against mouse BALB/3T3 cells assessed as reduction in cell viability incubated for 72 hrs by MTT assay; assay type: toxicity, cell-based
MCF7 [8] = assay: Antiproliferative activity against human MCF7 cells assessed as reduction in cell viability at 10 uM incubated for 24 hrs by MTT assay; assay type: functional
MCF7 [9] = assay: Antiproliferative activity against human MCF7 cells assessed as reduction in cell viability at 10 uM incubated for 48 hrs by MTT assay; assay type: functional
MCF7 [10] = assay: Antiproliferative activity against human MCF7 cells assessed as reduction in cell viability at 10 uM incubated for […] by MTT assay; assay type: functional
MCF7 [11] = assay: Cytotoxicity against human MCF7 cells harbouring BRCA1 assessed as inhibition of cell growth measured after 72 hrs by MTT assay; assay type: functional, cell-based; settings: MCF7, 72 h
MDA-MB-436 [12] = assay: Antiproliferative activity against human MDA-MB-436 cells assessed as reduction in cell viability incubated for 72 hrs by MTT assay; assay type: functional, cell-based; settings: MDA-MB-436, 72 h
[13] = molecular target: T1, Poly [ADP-ribose] polymerase 1; assay: Inhibition of human recombinant PARP-1 by ELISA assay
MCF7 [14] = assay: Anticancer activity against human MCF7 cells assessed as reduction in cell viability; assay type: functional, cell-based
Caco-2 = assay: Cytotoxicity against human Caco-2 cells assessed as inhibition of cell growth incubated for 72 hrs by CCK-8 assay; assay type: functional, cell-based; settings: Caco-2, 72 h
[15] = Cytotoxicity against African green monkey Vero cells; assay type: toxicity, cell-based, Chlorocebus sabaeus
HepG2 = assay: Antiproliferative activity against human HepG2 cells assessed as reduction in cell growth incubated for 24 hrs by MTT assay; assay type: functional, cell-based; settings: HepG2, 24 h
A549 [16] = assay: Antiproliferative activity against human A549 cells assessed as reduction in cell growth incubated for 24 hrs by MTT assay; assay type: functional, cell-based; settings: A549, 24 h
MCF7 [17] = assay: Antiproliferative activity against human MCF7 cells assessed as reduction in cell growth incubated for 24 hrs by MTT assay; assay type: functional, cell-based; settings: MCF7, 24 h
HCT-116 [18] = assay: Antiproliferative activity against human HCT-116 cells assessed as reduction in cell growth incubated for 24 hrs by MTT assay; assay type: functional, cell-based; settings: HCT-116, 24 h
[19] = Antiproliferative activity against human MCF10A cells assessed as inhibition of cell growth incubated for 72 hrs by alamar blue assay; assay type: functional, cell-based; settings: MCF10AT1, 72 h
[20] = molecular target: T1, Poly [ADP-ribose] polymerase 1; assay: Inhibition of human recombinant PARP1 at 0.01 uM relative to control
[21] = molecular target: T1, Poly [ADP-ribose] polymerase 1; assay: Inhibition of human recombinant PARP1 at 0.1 uM relative to control
[22] = molecular target: T1, Poly [ADP-ribose] polymerase 1; assay: Inhibition of human recombinant PARP1 at 1 uM relative to control
[23] = molecular target: T1, Poly [ADP-ribose] polymerase 1; assay: Inhibition of human recombinant PARP1 at 10 uM relative to control
[24] = molecular target: T1, Poly [ADP-ribose] polymerase 1; assay: Inhibition of human recombinant PARP1 at 100 uM relative to control
MCF7 [25] = assay: Antiproliferative activity against human MCF7 cells assessed as reduction in cell growth measured after 72 hrs by MTT assay; assay type: functional, cell-based; settings: MCF7, 72 h
[26] = molecular target: T1, Poly [ADP-ribose] polymerase 1; assay: Inhibition of human recombinant PARP1 expressed in Escherichia coli BL21(DE3)
MCF7 [27] = assay: Cytotoxicity against human MCF7 cells assessed as reduction in cell growth incubated for 72 hrs by alamar blue reagent based analysis; assay type: functional; settings: MCF7, 72 h
MDA-MB-231 [28] = assay: Cytotoxicity against human MDA-MB-231 cells assessed as reduction in cell growth incubated for 72 hrs by alamar blue reagent based analysis; assay type: functional; settings: MDA-MB-231, 72 h
MDA-MB-436 [29] = assay: Antiproliferative activity against human MDA-MB-436 cells assessed as reduction in cell viability; assay type: functional, cell-based
[30] = molecular target: T1, Poly [ADP-ribose] polymerase 1; assay: Inhibition of PARP1 (unknown origin) using biotinylated NAD+ as substrate by luminescence assay
[31] = molecular target: T2, Poly [ADP-ribose] polymerase 2; assay: Inhibition of PARP2 (unknown origin) using biotinylated NAD+ as substrate by luminescence assay
[32] = molecular target: T1, Poly [ADP-ribose] polymerase 1; assay: Inhibition of PARP1 (unknown origin) at 10 uM relative to control
[33] = molecular target: T2, Poly [ADP-ribose] polymerase 2; assay: Inhibition of PARP2 (unknown origin) at 10 uM relative to control
MDA-MB-436 [34] = assay: Cytotoxicity against human MDA-MB-436 cells assessed as reduction in cell viability incubated for 24 hrs by MTS assay; assay type: functional, cell-based; settings: MDA-MB-436, 24 h
MDA-MB-231 [35] = assay: Cytotoxicity against human MDA-MB-231 cells assessed as reduction in cell viability incubated for 24 hrs by MTS assay; assay type: functional, cell-based; settings: MDA-MB-231, 24 h
MCF7 [36] = assay: Cytotoxicity against human MCF7 cells assessed as reduction in cell viability incubated for 24 hrs by MTS assay; assay type: functional, cell-based; settings: MCF7, 24 h
[37] = Microsomal stability in human liver microsomes assessed as half life measured for 48 hrs by LC-MS/MS analysis; assay type: ADME, Microsome
[38] = Microsomal stability in rat liver microsomes assessed as half life measured for 48 hrs by LC-MS/MS analysis; assay type: ADME, Microsome
[39] = molecular target: Protein mono-ADP-ribosyltransferase PARP3 (Homo sapiens, UniProt Q9Y6F1); assay: Inhibition of PARP3 (unknown origin)
Chain of Protein mono-ADP-ribosyltransferase PARP3 (Q9Y6F1 whole entry): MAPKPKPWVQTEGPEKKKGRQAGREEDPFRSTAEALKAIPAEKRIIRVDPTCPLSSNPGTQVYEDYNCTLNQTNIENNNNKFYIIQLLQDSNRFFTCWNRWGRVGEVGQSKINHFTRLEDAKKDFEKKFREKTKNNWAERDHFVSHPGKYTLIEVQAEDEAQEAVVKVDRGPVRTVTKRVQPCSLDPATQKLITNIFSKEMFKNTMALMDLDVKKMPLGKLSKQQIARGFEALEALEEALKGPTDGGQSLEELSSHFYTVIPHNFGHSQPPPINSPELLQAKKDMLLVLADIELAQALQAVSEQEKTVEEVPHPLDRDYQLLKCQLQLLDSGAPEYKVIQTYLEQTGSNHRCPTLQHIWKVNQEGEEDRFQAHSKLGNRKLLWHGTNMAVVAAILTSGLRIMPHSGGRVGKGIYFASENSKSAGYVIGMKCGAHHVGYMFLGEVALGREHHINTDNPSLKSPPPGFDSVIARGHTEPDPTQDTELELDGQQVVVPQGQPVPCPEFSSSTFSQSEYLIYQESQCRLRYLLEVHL

T1 sequence (P09874 whole entry): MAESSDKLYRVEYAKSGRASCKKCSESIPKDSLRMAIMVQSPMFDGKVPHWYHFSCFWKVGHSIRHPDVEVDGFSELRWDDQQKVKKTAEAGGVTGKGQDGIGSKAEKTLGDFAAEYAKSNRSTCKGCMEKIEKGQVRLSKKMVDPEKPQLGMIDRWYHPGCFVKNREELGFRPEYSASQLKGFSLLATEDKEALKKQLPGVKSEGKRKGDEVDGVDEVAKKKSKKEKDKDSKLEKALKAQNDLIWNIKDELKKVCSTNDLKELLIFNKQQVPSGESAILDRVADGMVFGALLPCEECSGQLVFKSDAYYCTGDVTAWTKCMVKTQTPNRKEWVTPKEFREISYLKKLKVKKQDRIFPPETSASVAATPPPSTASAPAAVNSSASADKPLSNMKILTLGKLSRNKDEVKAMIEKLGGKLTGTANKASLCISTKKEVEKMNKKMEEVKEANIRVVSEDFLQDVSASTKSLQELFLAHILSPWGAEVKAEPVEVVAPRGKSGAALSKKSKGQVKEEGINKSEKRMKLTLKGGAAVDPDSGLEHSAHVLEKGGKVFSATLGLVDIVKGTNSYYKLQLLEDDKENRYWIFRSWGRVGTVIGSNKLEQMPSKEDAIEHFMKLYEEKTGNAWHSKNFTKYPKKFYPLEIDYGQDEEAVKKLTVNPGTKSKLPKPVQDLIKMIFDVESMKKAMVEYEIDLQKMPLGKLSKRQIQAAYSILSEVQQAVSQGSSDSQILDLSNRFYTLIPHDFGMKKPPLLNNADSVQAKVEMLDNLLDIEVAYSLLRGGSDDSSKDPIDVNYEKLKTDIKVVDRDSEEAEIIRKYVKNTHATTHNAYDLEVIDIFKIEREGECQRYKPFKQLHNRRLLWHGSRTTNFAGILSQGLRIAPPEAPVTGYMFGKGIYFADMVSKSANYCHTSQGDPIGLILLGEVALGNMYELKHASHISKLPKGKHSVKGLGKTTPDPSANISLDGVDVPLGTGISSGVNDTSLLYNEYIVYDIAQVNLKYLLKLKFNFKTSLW

O=C1N[C@H](C2CC2)[C@@H](C(=O)N2CCC(N3CCCCC3)CC2)c2ccc(F)cc21
IC50 [1]: 22 µM
IC50 [2]: 4.3 µM

Cn1ncnc1[C@H]1c2n[nH]c(=O)c3cc(F)cc(c23)N[C@@H]1c1ccc(F)cc1 [TALAZOPARIB]
IC50 (MDA-MB-157): 0.00037 µM
IC50 (HCC1395): 0.00046 µM

CCOC(=O)c1ccc(NC(=O)CS/C(=C\C(=O)c2sc(Nc3ccccn3)nc2C)c2ccccc2F)cc1
IC50 [1]: 2.28 µM
IC50 [2]: 0.72 µM
GI50 (RPMI-8226): 8.29 µM
GI50 (NCI-H226): 2.52 µM
GI50 (HCT-116 [3]): 23 µM
GI50 (SNB-75): 3.58 µM
GI50 (LOX IMVI): 0.312 µM
GI50 (IGROV-1): 12.1 µM
GI50 (MDA-MB-468): 4.24 µM
IC50 (HCT-116 [4]): 6.11 µM
IC50 (MCF7 [5]): 2.79 µM
IC50 (Jurkat): 5.36 µM
IC50 (A549 [6]): 8.05 µM
IC50 (SK-OV-3): 7.87 µM
IC50 (KB 3-1): 7.63 µM
IC50 at 72 h [7]: 7.79 µM
Activity (MCF7 [8]): 19.9%
Activity (MCF7 [9]): 43%
Activity (MCF7 [10]): 90%
IC50 (MCF7 [11]): 0.7 µM

NC(=O)c1cccc2[nH]c(-c3ccc(C(=O)N4CCN(C(=O)c5ccc(Br)o5)CC4)cc3)nc12
IC50 (MDA-MB-436 [12]): 43.6 µM
IC50 [13]: 0.023 µM

CCOC(=O)CO/N=C(\N)c1ccc(C)cc1
IC50 (MCF7 [14]): 0.32 µM
IC50 (Caco-2): 0.4 µM
IC50 [15]: 0.48 µM

O=C1CCc2cc(-c3ccccc3F)ccc2C2(CCCCC2)N1
IC50 [2]: 0.0305 µM
IC50 (HepG2): 2.01 µM
IC50 (A549 [16]): 3.67 µM
IC50 (MCF7 [17]): 4.25 µM
IC50 (HCT-116 [18]): 3.94 µM

COc1ccc(CSc2nccc(OCC(=O)N3CCN(c4ccc(C)cc4)CC3)n2)cc1
IC50 [19]: 46.9 µM
inhibition [20]: 0.5%
inhibition [21]: 15.6%
inhibition [22]: 29.8%
inhibition [23]: 70.3%
inhibition [24]: 85.8%

O=C(Cn1c(=S)n(-c2ccccc2)c(=O)c2ccccc21)Nc1ccc2c(c1)C(=O)c1ccccc1C2
IC50 [1]: 0.17 µM
IC50 (MCF7 [25]): 11.4 µM

NC(=O)c1cccc2[nH]c(-c3ccc(C(=O)NC4CCN(C(=O)c5ccc(Cl)o5)C4)cc3)nc12 (centres undefined)
IC50 [26]: 0.00865 µM

CCOC(=O)CO/N=C(\N)c1ccccc1
IC50 (MCF7 [14]): 0.8 µM
IC50 (Caco-2): 0.43 µM
IC50 [15]: 6.76 µM

COc1ccc(Cc2nnc(-c3cccc(-c4cccc(C=O)c4)c3)o2)cc1
IC50 (MCF7 [27]): 1.4 µM
IC50 (MDA-MB-231 [28]): 29.3 µM

Cc1ccoc1C(=O)N1CCCN(C(=O)c2ccc(-c3nc4c(C(N)=O)cccc4[nH]3)cc2)CC1
IC50 (MDA-MB-436 [29]): 25.4 µM

NC(=O)c1cccc2[nH]c(C3CCN(C4CCC(F)(F)CC4)CC3)nc12
IC50 [30]: 0.0043 µM
IC50 [31]: 0.00158 µM
inhibition [32]: 47.9%
inhibition [33]: 90.8%
IC50 (MDA-MB-436 [34]): 28.3 µM
IC50 (MDA-MB-231 [35]): 96.8 µM
IC50 (MCF7 [36]): 60.8 µM
half-life [37]: 4.38 h
half-life [38]: > 16.7 h

CCN(CC)CCC(=O)Nc1ccc(-c2nc3cc(Cl)ccc3o2)cc1
IC50 [39]: 0.057 µM
